The values below come from patent US20240165196A1, “Beta-Lactamase Inhibitors” (VIB VZW, priority 2021, published 2024).

Read-outs that look alike come from different tables or passages of the source. A value given as a limit tells only on which side of the number the result lay.

The target of one assay is T1, TEM-1 (Escherichia coli, UniProt P62593).
T1 construct: DNA TEM (870 bp) or SHV (894 bp) were each sub-cloned into a PUC57 vector cloning site NdeI/XhoI; His-tag (N); TEV cleavage site (N); made in house; host or cells: E. coli BL21 (DE3)
Nature of the assay: thermal denaturation with right-angle/static light scattering (aggregation) in presence of beta-lactamase inhibitors. Conditions: TEM-1, dose titration of inhibitor. It is filed as biochemical, E. coli.

The test system of the next assay is E. coli UZ_TEM104. Nature of the assay: FACS analysis with Propidium Iodide and pFTAA. It is filed as cell-based. Conditions: 400 μg/mL penicillin G only, 4 h. Here is the method: (§1) FIGS. 3A-3P. […] Three replicates are shown for each condition. […] A single representative image is shown. […] Three replicates are shown for each condition. (FIG. 3E) [Left] […] [Middle] […] [Right] […] A single representative image is shown. […] A single representative image is shown. […] A single representative image is shown. […] A single representative blot is shown. […] 106 cells were analysed for the plot.
First, we tested the assay using a mixture of live and heat inactivated (FIG. 3L) or just live bacteria (FIG. 3M), showing that heat inactivated, but not live bacteria are stained with PI, and neither are stained with pFTAA.
Bacterial cells in the cleaned suspensions were stained with both propidium iodide (PI) and FITC peptide to evaluate the killing rate and peptide uptake in a two-dimensional analysis. […] Treated bacteria washed with PBS buffer two times. One microliter of PI (Invitrogen) was added to the bacteria and incubated for 5 min. The bacteria were used by FACS tubes for 40000 events. To correlate the activity of the peptides with cell death, the fluorescence intensity was measured in two channels using the Gallios™ Flow Cytometer (Beckman Coulter, USA), PI: excitation 536 nm and emission 617 nm, FITC: excitation 490 nm and emission 525 nm. Heated bacteria at 90° C. for 10 min were used as PI-positive control.
For orientation: Flow cytometry measures light scatter and fluorescence of single cells or particles in a stream.

Assay [1] deals with E. coli strain UZ_TEM104. The class given is cell-based.
Assay [2] concerns E. coli strain UZ_TEM104. It is filed as cell-based. Conditions: peptide alone. The text has this:
In order to generate a synthetic amyloid peptide capable of inactivating the TEM-1 beta-lactamase enzyme by capitalizing on its aggregation propensity, we applied a previously developed design pattern for synthetic aggregating sequences. This involves a tandem repeat of the APR, each instance flanked by charged amino acids for solubility and separated by a short peptide linker^19,20,23 (FIG. 2G). Previous work has shown that good bacterial uptake can be achieved using one positively charged arginine residue on the N-terminal side of each APR in the tandem and two arginine residues on the C-terminal side. This has the additional benefit of reducing the self-aggregation of the peptides and increasing their solubility prior to target engagement. As before, we employed a single Pro residue as a linker between the APRs and focused on an APR length of seven, extending shorter APRs to this length by incorporating flanking amino acids unless they were obvious aggregation breakers (Arg, Lys, Asp, Glu or Pro, see Table 1). We obtained these peptides from solid phase synthesis, followed by HPLC purification to a purity judged by reverse phase chromatography of at least 90% (Genscript).
Determination of MIC values using the broth microdilution in the 96-well plate (BD Biosciences, Belgium) according to the EUCAST guideline, which was performed in 96-well polystyrene flat bottom microtiter plates (BD Biosciences). Briefly, a single colony was inoculated into 5 mL Difco™ Mueller Hinton Broth (BD Biosciences Ref 275730) and grown to the end-exponential growth phase in a shaking incubator at 37° C. Cultures were subsequently diluted to an MacFarland (0.5 optical density) then the culture was diluted to reach 10^6 CFU/mL in fresh MHB medium. 50 μl of different concentration of peptides ranging from 128 to 2 μg/mL were serially diluted to the sterile 96-well plate in MHB. 50 μL of the diluted bacteria in MHB were pipetted into 96-well plates to reach the final volume of 100 μL. The bacteria grown with the maximum concentration of carrier and medium were considered as positive and negative controls, respectively. The plates were statically incubated overnight at 37° C. to allow bacterial growth. OD was measured at 590 nm a multipurpose ultraviolet-visible plate reader, and the absorbance of the growth bacteria was measured using absorbance reader. Bacterial growth was also visually inspected and agreed well with the OD reading.

Assay [3] deals with TEM beta-lactamase in E. coli UZ_TEM104. Nature of the assay: western blot of inclusion body (IB) fraction for TEM. The class given is cell-based. Conditions: 12 μM peptide in PBS, 120 min. The protocol:
as §1
(§2) Moreover, we confirmed the presence of the protein in the correct band using mass spectrometry proteomics. We repeated this with a strain expressing SHV-154, blotting with a polyclonal rabbit antibody raised against the recombinant SHV enzyme described above (FIG. 3K).
(§3) The overnight culture of bacteria was centrifuged for 30 min at 4,000×g and cells were washed with physiological water (NaCl 0.9%). Bacterial cells were treated by peptide at the appropriate concentration for at least 2 h at 37 C. The bacterial pellets were washed with 10 mL buffer A (50 mM HEPES, pH 7.5, 300 mM NaCl, 5 mM β-mercaptoethanol, 1.0 mM EDTA) and centrifuged at 4° C. for 30 min at 4,000×g. The supernatant was discarded and 20 mL of buffer B (buffer A plus 1 tablet of the protease and phosphatase Inhibitor Cocktail (ab201119, Abcam, UK) was added to the bacterial pellet. In order to break the cells, a High-Pressure Homogenizer (Glen Creston Ltd) with the pressure set to 20,000-25,000 psi was used on ice, and in addition, the suspensions were sonicated (Branson Digital sonifier 50/60 Hz) on ice with alternating 2 min cycle (15 pulses at 50% power with 30 s pauses on ice, until completing 2 min total sonication time). The lysed cells were centrifuged at 4° C. for 30 min at 11,000×g. The precipitated fraction was afterward re-suspended with 10 mL buffer D (buffer A plus 0.8% (V/V) Triton X-100, 0.1% sodium deoxycholate) and the suspension was sonicated to ensure the pellet is completely dissolved. This step was repeated three times. Centrifugation was performed at 4° C. for 30 min at 11,000×g. Finally, to solubilize IBs, the pellet was suspended in 500 ul of buffer F (50 mM HEPES, pH 7.5, 8.0 M urea) of precipitated fraction.
In general terms: A western blot detects proteins with antibodies after separation by electrophoresis.

A further assay relates to E. coli TEM-104. Nature of the assay: checkerboard assay (FICI), peptide versus penicillin G. The class given is cell-based. Conditions: strain with TEM; FICI below 0.5 = synergy. The text has this:
(§4) FIGS. 2A-2M. (FIG. 2A) TEM mutations and their effects on stability (total energy) as predicted by FoldX. […] Dashed line indicates a total energy difference of 0.5 kcal/mol, the FoldX cut-off above which mutations are considered to be destabilizing. (FIG. 2B) Barplot mapping mutations in (FIG. 2A) to the TEM sequence and indicating occurrence. […] The bar heights correspond to the number of times a mutation occurs across different TEM variants (right-hand y-axis). The color coding is identical to that in (FIG. 2A). Red line indicates the TANGO scores (indicated on the left-hand y-axis), with peaks corresponding to APRs. (FIG. 2C) Mapping of mutations in (FIG. 2A) and (FIG. 2B) to the TEM structure (pdb 1xpb). Protein surface is shown in gray, color coding of mutations is identical to (FIG. 2A) and (FIG. 2B). (FIGS. 2D, 2E, and 2F) Temperature-dependent evolution of the Right-Angle Light Scattering (RALS) intensity during a temperature ramp, similar as in FIG. 1F for key mutants of TEM1, namely TEM-10 (FIG. 2D), TEM-30 (FIG. 2E) and TEM-155 (FIG. 2F). Experiments were shown in triplicate, single repeat is shown. (FIG. 2G) Schematic representation of the structure of the peptides. APR—Aggregation Prone Region, R—Arginine. (FIG. 2H) Ribbon representation of the superposition of the crystal structures of TEM (green, pdb id 1bt5) and SHV (blue, pdb id 1shv). The catalytic site of the beta-lactamase activity is indicated and location of APR3 is shown in red. (FIG. 2I) TANGO aggregation score and alignment of APR3 in TEM and SHV. (FIG. 2J) Fractional Inhibitory Concentration Index determination of 5 peptides versus penicillin on E. coli TEM-104. […] FICI values below 0.5 indicate synergy. Values between 0.5 and 1.0 indicate additivity and values greater than 1 indicate indifference between the combined substances. (FIG. 2K) Same as J for E. coli SHV-11. (FIG. 2L) Same as J for a kanamycin resistant E. coli strain. (FIG. 2M) FICI values for the TEM3.2 peptide on a range of E. coli strains.
(§5) Moreover, the core sequence of peptide TEM3.0 also occurs in the structurally related SHV β-lactamase ([…]). Although the C-terminal extension residues H and N have been replaced with physicochemically similar R and Q, respectively (FIG. 2H). […] To quantify the synergy between these four peptides and penicillin G, we performed a so-called checkerboard assay, which allows to compare the activity of two test compounds co-incubated (here peptide and a beta-lactam antibiotic), to their individual activities in isolation. The result from the assay is quantified as the Fractional Inhibitory Concentration Index (FICI), and it is generally accepted that values below 0.5 indicate synergistic effects between the compounds. As a control, we generated a peptide using the same design, but based on a previously identified APR from the β-galactosidase enzyme (BGAL)^16 from E. coli (APR=SVIIWSL, peptide sequence=[…]) that has a MIC value>100 μg/mL on E. coli strain UZ_TEM104. We evaluated the synergy of the peptides with penicillin G in clinical E. coli isolates carrying the TEM ([…]) or SHV enzymes ([…]). […] As a further control, we also performed a checkerboard assay with an E. coli strain that was resistant to the aminoglycoside kanamycin and observed no synergy between this unrelated antibiotic and our peptides (FIG. 2L), in line with the notion that we are inhibiting a beta-lactamase but not the aminoglycoside degrading enzyme. […] The list of strains included some that harbored only TEM or SHV, but others contained additional Ambler Class A (CTX-M or […]) or Class B (VIM and NDM) beta-lactamases. […] In contrast, the presence of the NDM-type […], that does have a high affinity for Ampicillin and that is completely distinct in sequence and structure from TEM and SHV, seemed to completely prevent the effect of the peptide on the beta-lactam sensitivity of the strains in which it occurred (see also further). […]

The next assay relates to E. coli SHV-11. Described as above. It is filed as cell-based. As to conditions: strain with SHV-11; FICI below 0.5 = synergy.
Description: as §4, §5

The test system of assay [4] is SHV beta-lactamase in strain expressing SHV-154. The assay can be described thus: western blot of inclusion body (IB) fraction for SHV. The class given is cell-based, E. coli. Conditions: 12 μM peptide in PBS, 120 min. The protocol: as §1, §2, §3
[5] abbreviates: in presence of additive at 50 μg/mL.

T1 sequence (P62593 24-286 limits assumed): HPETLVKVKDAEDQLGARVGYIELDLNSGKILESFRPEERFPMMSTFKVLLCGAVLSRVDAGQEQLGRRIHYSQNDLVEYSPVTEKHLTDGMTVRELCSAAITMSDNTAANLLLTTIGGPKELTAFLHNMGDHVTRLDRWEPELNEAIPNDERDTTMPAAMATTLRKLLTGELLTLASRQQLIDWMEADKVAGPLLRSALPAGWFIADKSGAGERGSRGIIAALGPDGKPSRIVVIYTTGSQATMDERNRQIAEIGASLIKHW

For `NC(=O)[C@@H]1CC[C@@H]2CN1C(=O)N2OS(=O)(=O)O` [avibactam], at TEM-1, the “aggregation of the enzyme (static light scattering), dose-response” value is “reduce the aggregation of the enzyme in a dose-responsive manner”.
On the same count and under the same terms, as for `O=C(O)[C@H]1/C(=C/CO)O[C@@H]2CC(=O)N21` [clavulanate], the entry is “reduce the aggregation of the enzyme in a dose-responsive manner”.
Consider `CC1(C)S[C@@H]2[C@H](NC(=O)Cc3ccccc3)C(=O)N2[C@H]1C(=O)O` [penicillin G, Benzylpenicillin sodium], for which the “change in PI (cell death) and pFTAA (aggregation) channels” value in the assay on E. coli UZ_TEM104 was “no major change in either channel”. This compound had an MIC penicillin in the assay on E. coli strain UZ_TEM104 [1] (penicillin alone, buffer, additive 0 μg/mL) of 1600 µg/mL.
`O=C(O)C[C@@H]1CC[C@H](NC(=O)Cc2cccs2)B(O)O1` [vaborbactam]: the “aggregation of the enzyme (static light scattering), dose-response” value at TEM-1 is given as “reduce the aggregation of the enzyme in a dose-responsive manner”.
In the assay on E. coli strain UZ_TEM104 [2], Ac-RAGWFIARRPRAGWFIARR-NH2 [TEM5.0] returned an MIC peptide of 100 µg/mL. Moreover, the MIC penicillin in the assay on E. coli strain UZ_TEM104 [1] (setting [5]) amounted to 1600 µg/mL.
On to Ac-RGIIAALGRRPRGIIAALGRR-NH2 [TEM6.0], for which, in the assay with E. coli strain UZ_TEM104 [2], the MIC peptide is >100 µg/mL. In the assay with E. coli strain UZ_TEM104 [1] (setting [5]), the MIC penicillin is 1600 µg/mL.
For Ac-RIVVIYTTRRPRIVVIYTTRR-NH2 [TEM7.0], in that order: >100 µg/mL and 1600 µg/mL.
The matching figures for Ac-RLLLTTIGRRPRLLLTTIGRR-NH2 [TEM2.0]: >100 µg/mL and 800 µg/mL.
As to Ac-RLLTLASRRPRLLTLASRR-NH2 [TEM4.0], in the assay on E. coli strain UZ_TEM104 [2], the MIC peptide turned out to be 100 µg/mL. For the same compound, the MIC penicillin in the assay on E. coli strain UZ_TEM104 [1] (setting [5]) turned out to be 1600 µg/mL.
In the case of “RLTAFLRQRRPRLTAFLHNRR (non-natural molecule) [TEM3.3]”, the “enrichment of the TEM protein in inclusion bodies (western blot)” value in assay [3] was “clear enrichment of the TEM protein in IBs”. Further, the “synergy with penicillin G (FICI)” value in the assay with E. coli TEM-104 and in the assay on E. coli SHV-11 was “synergy” throughout. Besides, the “accumulation of the SHV enzyme in inclusion bodies (western blot)” value in assay [4] is listed as “accumulates in IBs”.
As for “RLTAFLRQRRPRLTAFLRQRR (non-natural molecule) [TEM3.1]”, the “enrichment of the TEM protein in inclusion bodies (western blot)” value in assay [3] is “not”. The “synergy with penicillin G (FICI)” value in the assay with E. coli SHV-11 is “clear synergy”. Besides, in assay [4], the “accumulation of the SHV enzyme in inclusion bodies (western blot)” value was “accumulates in IBs”.
